From patent US10611750B2, “Tetrahydroquinoline compositions as bet bromodomain inhibitors” (FORMA Therapeutics, Inc., priority 2013, dated 2020) come the findings set out here.

Assay [1] addresses T1, BRD4 Bromodomain 1 (BRD4 BD1) (Homo sapiens, UniProt O60885).
T1 construct: 44-168 and BRD4 BD2
Nature of the assay: AlphaScreen binding assay, BRD4 BD1. The settings on record: His-tagged BRD4 BD1 50 nM, biotinylated H4 (1-21) K5/8/12/16 tetra-acetylated peptide 50 nM, compounds listed under IC50 range headings. The gist of the method:
(§1)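 An AlphaScreen competition format was used with His-BRD4 BD1 or BD2 and biotin-H4 K5/8/12/16-acetyl peptide, each at matched final levels of 50 nM (BD1) or 100 nM (BD2). Incubation in HEPES/NaCl buffer with 0.1% BSA and 0.01% Triton X-100 ran ≥1 h before IC50 determination.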
In general terms: Bead proximity is the source of the signal in Alpha formats.

Assay [2] concerns the target T2, BRD4 Bromodomain 2 (BRD4 BD2) (Homo sapiens, UniProt O60885).
T2 construct: 333-460 were cloned, expressed, and purified to homogeneity
Kind of assay: AlphaScreen binding assay, BRD4 BD2. To be noted: His-tagged BRD4 BD2 100 nM, biotinylated H4 (1-21) K5/8/12/16 tetra-acetylated peptide 100 nM, compounds listed under IC50 range headings. The gist of the method: as §1

Assay [3] relates to acute myelocytic leukemia (AML) cell line MV4-11. Kind of assay: Oncology cell growth assay (3-day proliferation, CellTiter-Glo). It counts as cell-based. To be noted: Homo sapiens, MV4-11, 72 h, MV4-11 cells, 3000 cells/well, compounds listed under IC50 range headings, read-out: MV411 IC50 (gIC50, inhibition of proliferation). The gist of the method:
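A 3-day proliferation test used MV4-11 cells seeded at 3000 per well with eight compound concentrations (10 μM top, 3-fold dilution) at 37° C in 5% CO2. CellTiter-Glo luminescence defined viable cell signal. A four-parameter logistic curve against DMSO and background wells gave the gIC50.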
(In general: Cellular ATP, detected with luciferase, serves as a proxy for viable cell number.)

SMILES strings stand for the structures.

Take `CC(=O)N1c2ccc(-c3cnn(C4CC4)c3)c(OCC3CCCCC3)c2CC[C@@H]1C` [I-402]: the IC50 in assay [1] lay in the range of 100 to 1000 nM; in assay [2] it was 50 to 500 nM; in assay [3], 500 to 1000 nM.

`CCCOc1c(-c2cnn(CCS(C)(=O)=O)c2)ccc2c1CC[C@H](C)N2C(C)=O` [I-407]: the IC50 in assay [1] is 100 to 1000 nM; in assay [2], below 50 nM; in assay [3], below 500 nM.

With `CCCOc1c(-c2cnn(CC(C)(C)O)c2)ccc2c1CC[C@H](C)N2C(C)=O` [I-408], the IC50 in assay [1] is 100 to 1000 nM; in assay [2], below 50 nM; in assay [3] it was below 500 nM.

As to `CC(=O)N1c2ccc(-c3cnn(CCS(C)(=O)=O)c3)c(OC3CCC3)c2CC[C@@H]1C` [I-409], the IC50 was 100 to 1000 nM in assay [1], below 50 nM in assay [2] and below 500 nM in assay [3].

In the case of `CC(=O)N1c2ccc(-c3cnn(CC(C)(C)O)c3)c(OC3CCC3)c2CC[C@@H]1C` [I-410], the IC50 in assay [1] is 1000 to 10000 nM; in assay [2], below 50 nM; in assay [3] it was below 500 nM.

Turning to `CC(=O)N1c2ccc(-c3cnn(CCO)c3)c(OC3CCC3)c2CC[C@@H]1C` [I-411], the IC50 in assay [1] is 100 to 1000 nM; in assay [2], below 50 nM; in assay [3], below 500 nM.

Turning to `CC(=O)N1c2ccc(-c3cnn(C4CCNCC4)c3)c(OC3CCC3)c2CC[C@@H]1C` [I-412], the IC50 is 100 to 1000 nM in assay [1], below 50 nM in assay [2] and below 500 nM in assay [3].

Regarding `CC(=O)N1c2ccc(-c3cnn(CCS(C)(=O)=O)c3)c(OCC3CCOCC3)c2CC[C@@H]1C` [I-413], the IC50 is 100 to 1000 nM in assay [1], 50 to 500 nM in assay [2] and below 500 nM in assay [3].

Turning to `CC(=O)N1c2ccc(-c3cnn(CCO)c3)c(OCC3CCOCC3)c2CC[C@@H]1C` [I-415], the results for the IC50 in assay [1], in assay [2] and in assay [3] were below 100 nM, below 50 nM and below 500 nM, respectively.

As for `CC(=O)N1c2ccc(-c3cnn(C4CCNCC4)c3)c(OCC3CCOCC3)c2CC[C@@H]1C` [I-416], the IC50 in assay [1] was below 100 nM; in assay [2] it was below 50 nM; in assay [3], below 500 nM.

Regarding `CC(=O)N1c2ccc(-c3cnn(CCS(C)(=O)=O)c3)c(OCC(C)C)c2CC[C@@H]1C` [I-420], the IC50 in assay [1] was 100 to 1000 nM; in assay [2] it was below 50 nM; in assay [3] it was below 500 nM.

On to `CC(=O)N1c2ccc(-c3cnn(CCO)c3)c(OCC(C)C)c2CC[C@@H]1C` [I-422], for which the IC50 in assay [1] was 100 to 1000 nM; in assay [2], below 50 nM; in assay [3], below 500 nM.

Regarding `CC(=O)N1c2ccc(-c3cnn(C4CCNCC4)c3)c(OCC(C)C)c2CC[C@@H]1C` [I-423], the IC50 is below 100 nM in assay [1], below 50 nM in assay [2] and below 500 nM in assay [3].

Take `CC(=O)N1c2ccc(-c3cnn(CCS(C)(=O)=O)c3)c(OCC3CCCC3)c2CC[C@@H]1C` [I-424]: the IC50 was 100 to 1000 nM in assay [1], below 50 nM in assay [2] and below 500 nM in assay [3].

For the compound `CC(=O)N1c2ccc(-c3cnn(CC(C)(C)O)c3)c(OCC3CCCC3)c2CC[C@@H]1C` [I-425], the IC50 in assay [1] was 100 to 1000 nM; in assay [2], 50 to 500 nM; in assay [3], below 500 nM.

With `CC(=O)N1c2ccc(-c3cnn(CCO)c3)c(OCC3CCCC3)c2CC[C@@H]1C` [I-426], the IC50 in assay [1] is below 100 nM; in assay [2], below 50 nM; in assay [3] it was below 500 nM.

With `CC(=O)N1c2ccc(-c3cnn(C4CCNCC4)c3)c(OCC3CCCC3)c2CC[C@@H]1C` [I-427], the IC50 in assay [1] is below 100 nM; in assay [2], below 50 nM; in assay [3], below 500 nM.

Turning to `CC(=O)N1c2ccc(-c3cnn(C4CCNCC4)c3)c(OCC(=O)N3CCCC3)c2CC[C@@H]1C` [I-431], the figures for the IC50 in assay [1], in assay [2] and in assay [3] were 100 to 1000 nM, 50 to 500 nM and 500 to 1000 nM, respectively.

Turning to `CCCOc1c(-c2cnn(CC(C)(C)O)c2)ccc2c1CC[C@H](C)N2C(=O)OC` [I-442], the IC50 was 1000 to 10000 nM in assay [1], below 50 nM in assay [2] and below 500 nM in assay [3].

As for `CCCOc1c(-c2cnn(CCO)c2)ccc2c1CC[C@H](C)N2C(=O)OC` [I-443], the IC50 in assay [1] was 1000 to 10000 nM; in assay [2], below 50 nM; in assay [3], below 500 nM.

Take `COC(=O)N1c2ccc(-c3cnn(CCS(C)(=O)=O)c3)c(OC3CCC3)c2CC[C@@H]1C` [I-444]: the IC50 in assay [1] is 100 to 1000 nM; in assay [2] it was below 50 nM; in assay [3], below 500 nM.

With `COC(=O)N1c2ccc(-c3cnn(CC(C)(C)O)c3)c(OC3CCC3)c2CC[C@@H]1C` [I-445], the values for the IC50 in assay [1], in assay [2] and in assay [3] were 1000 to 10000 nM, below 50 nM and below 500 nM, respectively.

For `COC(=O)N1c2ccc(-c3cnn(CCO)c3)c(OC3CCC3)c2CC[C@@H]1C` [I-446], the IC50 in assay [1] is 100 to 1000 nM; in assay [2], 50 to 500 nM; in assay [3], below 500 nM.

For `COC(=O)N1c2ccc(-c3cnn(C4CCNCC4)c3)c(OC3CCC3)c2CC[C@@H]1C` [I-447], the values for the IC50 in assay [1], in assay [2] and in assay [3] were below 100 nM, below 50 nM and below 500 nM, respectively.

With `COC(=O)N1c2ccc(-c3cnn(CC(C)(C)O)c3)c(OCC3CCOCC3)c2CC[C@@H]1C` [I-449], the IC50 is 100 to 1000 nM in assay [1], 50 to 500 nM in assay [2] and below 500 nM in assay [3].

For the compound `COC(=O)N1c2ccc(-c3cnn(C4CCNCC4)c3)c(OCC(C)C)c2CC[C@@H]1C` [I-458], the IC50 in assay [1] is 100 to 1000 nM; in assay [2], below 50 nM; in assay [3], below 500 nM.

For the compound `COC(=O)N1c2ccc(-c3cnn(CCS(C)(=O)=O)c3)c(OCC3CCCC3)c2CC[C@@H]1C` [I-459], the IC50 in assay [1] is 100 to 1000 nM; in assay [2] it was 50 to 500 nM; in assay [3], above 1000 nM.

Regarding `COC(=O)N1c2ccc(-c3cnn(CCO)c3)c(OCC3CCCC3)c2CC[C@@H]1C` [I-461], the results for the IC50 in assay [1], in assay [2] and in assay [3] were 100 to 1000 nM, below 50 nM and 500 to 1000 nM, respectively.

Turning to `COC(=O)N1c2ccc(-c3cnn(C4CCNCC4)c3)c(OCC3CCCC3)c2CC[C@@H]1C` [I-462], the IC50 in assay [1] was 100 to 1000 nM; in assay [2], below 50 nM; in assay [3] it was 500 to 1000 nM.

Regarding `COC(=O)N1c2ccc(-c3cnn(C4CCNCC4)c3)c(OCC(=O)N3CCCC3)c2CC[C@@H]1C` [I-466], the results for the IC50 in assay [1], in assay [2] and in assay [3] were 100 to 1000 nM, 50 to 500 nM and above 1000 nM, respectively.

In the case of `CC(=O)N1c2ccc(-c3cnn(C4CC4)c3)c(OCc3ccncc3)c2CC[C@@H]1C` [I-479], the IC50 was 1000 to 10000 nM in assay [1], below 50 nM in assay [2] and above 1000 nM in assay [3].

Consider `CCCOc1c(-c2ccc(OCCN(C)C)cc2)ccc2c1CC[C@H](C)N2C(C)=O` [I-486], for which the results for the IC50 in assay [1], in assay [2] and in assay [3] were 1000 to 10000 nM, 50 to 500 nM and below 500 nM, respectively.

`CC(=O)N1c2ccc(-c3ccc(OCCN(C)C)cc3)c(OCC(=O)N(C)C)c2CC[C@@H]1C` [I-487]: the IC50 in assay [1] is 1000 to 10000 nM; in assay [2] it was at least 500 nM; in assay [3], above 1000 nM.

With `CC(=O)N1c2ccc(-c3cccc(NS(C)(=O)=O)c3)c(OCC(=O)N(C)C)c2CC[C@@H]1C` [I-491], the IC50 is 1000 to 10000 nM in assay [1], 50 to 500 nM in assay [2] and above 1000 nM in assay [3].

Turning to `CC(=O)N1c2ccc(-c3ccc4c(c3)CCN4S(C)(=O)=O)c(OCC(=O)N(C)C)c2CC[C@@H]1C` [I-501], the IC50 in assay [1] is 1000 to 10000 nM; in assay [2], 50 to 500 nM; in assay [3], above 1000 nM.

For `CCCOc1c(-c2cc3ccccc3o2)ccc2c1CC[C@H](C)N2C(C)=O` [I-504], the IC50 in assay [1] was 1000 to 10000 nM; in assay [2], at least 500 nM; in assay [3], above 1000 nM.

Turning to `CC(=O)N1c2ccc(-c3cnn(C4CCNCC4)c3)c(Oc3ncc(F)cn3)c2CC[C@@H]1C` [I-511], the values for the IC50 in assay [1], in assay [2] and in assay [3] were 100 to 1000 nM, below 50 nM and below 500 nM, respectively.

Regarding `CC(=O)N1c2ccc(-c3cnn(C4CCNCC4)c3)c(Oc3ccc(C(F)(F)F)cn3)c2CC[C@@H]1C` [I-512], the IC50 in assay [1] was 100 to 1000 nM; in assay [2], 50 to 500 nM; in assay [3], below 500 nM.

On to `CC(=O)N1c2ccc(-c3cnn(C4CCNCC4)c3)c(Oc3ncccn3)c2CC[C@@H]1C` [I-513], for which the IC50 was 1000 to 10000 nM in assay [1], 50 to 500 nM in assay [2] and below 500 nM in assay [3].

Turning to `CC(=O)N1c2ccc(-c3cnn(C4CCNCC4)c3)c(Oc3nccc(C(F)(F)F)n3)c2CC[C@@H]1C` [I-514], the values for the IC50 in assay [1], in assay [2] and in assay [3] were 1000 to 10000 nM, 50 to 500 nM and below 500 nM, respectively.

As to `CC(=O)N1c2ccc(-c3cnn(C4CCNCC4)c3)c(Oc3ccnc(C(F)(F)F)n3)c2CC[C@@H]1C` [I-515], the IC50 was 1000 to 10000 nM in assay [1], 50 to 500 nM in assay [2] and 500 to 1000 nM in assay [3].

On to `CC(=O)N1c2ccc(-c3cnn(C4CCNCC4)c3)c(Oc3cc(N4CCOCC4)ncn3)c2CC[C@@H]1C` [I-516], for which the IC50 in assay [1] was in the range of 1000 to 10000 nM; in assay [2] it was 50 to 500 nM; in assay [3], 500 to 1000 nM.

For `CC(=O)N1c2ccc(-c3cnn(C4CCNCC4)c3)c(Oc3cc(C4CC4)ncn3)c2CC[C@@H]1C` [I-517], the IC50 was 1000 to 10000 nM in assay [1], 50 to 500 nM in assay [2] and below 500 nM in assay [3].
